The values below come from patent publication EP3441077A1, “PHARMACEUTICAL PRODUCT FOR TREATING ANKYLOSING SPONDYLITIS AND COMBINED IMMUNE DEFECT, AND PREPARATION AND APPLICATION THEREOF” (Beijing Lu De Kai Qi Co., Ltd., priority 2016, dated 2017).

The subject of one data set is male mice. Conditions: 40 mg/kg•bw, positive control.
For data set [1], the system named is mouse bone marrow polychromatic erythrocytes. To be noted: 50 mg/kg•bw, positive control; for Number of micronucleus: 5000 cells examined; for Micronucleus rate (‰): P<0.01 vs negative control.
Protocol: Test animals: The healthy Kunming mice provided by the Experimental Animal Center of the National Institute for the Control of Pharmaceutical and Biological Products are selected. • 3. Mouse bone marrow polychromatic erythrocyte micronucleus assay The assay was carried out via oral gavage and the administration was performed twice at intervals of 24 hr. 50 mice weighing 25-30 g are randomly divided into 5 groups according to body weight, 10 in each group, half male and half female. […] The doses of the pharmaceutical product for treating ankylosing spondylitis for combined immunodeficiency according to the present invention are 2.50, 5.00, and 10.00 g/kg•bw, respectively, which were adjusted to the desired concentration with distilled water. The animals were sacrificed by cervical dislocation six hours after the last administration of the pharmaceutical product for treating ankylosing spondylitis for combined immunodeficiency according to the present invention. The bone marrow of sternum was diluted with calf serum, smeared, fixed in methanol, and stained with Giemsa. Under the light microscope, 1000 polychromatic erythrocytes (PRC) were measured per animal, and the incidence of micronucleus was determined by the permillage of micronucleus-containing PRC and statistical process is performed.
For data set [2], the system named is patients with ankylosing spondylitis. As to the kind of experiment: Clinical trial in patients with ankylosing spondylitis. It counts as in vivo, human. To be noted: for Cure / Effective / Improved / Ineffective / excellence / upturn: 100 patients per group. As to the method: Clinical trials were performed in patients with ankylosing spondylitis. The criteria for inclusion are as follows: • (1) The New York Standard for Ankylosing Spondylitis revised in 1984 is met. • (2) The diagnostic criteria for the "renal deficiency and cold syndrome" of Ankylosing Spondylitis in Traditional Chinese Medicine is met. It is obtained by reference to the "Guidelines for Clinical Research of New Pharmaceutical products for Treating Arthralgia" and combined with the clinical experience of Professor Jiao Shude and Professor Yan Xiaoping. […] The five criteria for IBP are: age of onset <40 years old; insidious onset; improvement after exercise; no improvement after rest; and nocturnal pain (improvement after getting up). If the patient meets 4 of them, he or she can be confirmed to have IBP (sensitivity 77.0%, specificity 91.7%). […] Treatment method: a randomized control method was used. There are 100 patients in the test group, 100 patients in the control group 1, and 100 patients in the control group 2. […] Control group 1: the patients were orally administrated with loxoprofen sodium from Sankyo Co. Ltd., Japan twice a day in the morning and evening, and 3 months is a course of treatment. Control group 2: the patients were orally administrated with the traditional Chinese medicine for treating ankylosing spondylitis prepared in the examples of CN102091137B twice a day in the morning and evening, and 3 months is a course of treatment. No other medications for ankylosing spondylitis is administered during the course of treatment. In particular, the traditional Chinese medicine for treating ankylosing spondylitis prepared in the examples of CN102091137B is prepared as following: weighing the raw materials that contain in the formula ,that is 10 g of rhizoma cibotii, 15 g of pilose antler, 10 g of dipsacus asper, 5 g of scorpio, 15 g of kudzu vine root, 12 g of chuanxiong rhizome, 5 g of caulis spatholobi, 15 g of white paeony root, 15 g of common peony root, 10g of safflower carthamus, 15 g of medicinal cyathula root and 10 g of white mustard seed, adding 1500 ml of water, decocting with slow fire to concentrate the medicine liquid to 250 ml, filtering dregs of a decoction and preparing a decoction. Table 8 Indicators for efficacy evaluation in this clinical trial [table] […] Table 9 Statistical results of clinical trial After taking three courses of treatment, all the patients in the three groups stopped taking medication, and whether the symptoms were aggravated or slowed down was observed one month, three months, and twelve months after pharmaceutical product withdrawal. If the symptoms after a period of drug withdrawal were more serious than the symptoms at the time of drug withdrawal, it was labeled as "-", otherwise labeled as "+". If there were two grades in the difference, it was labeled as […]. For example, if the therapeutic effect of patient A at the time of drug withdrawal was improved, and the therapeutic effect twelve months after drug withdrawal was Ineffective, it was labeled as "-2". Table 10 Statistical results of clinical trial after pharmaceutical product withdrawal

Setting [3] is: At the time of drug withdrawal (after three courses).
Setting [4] is: One course of treatment (3 months), oral twice a day, graded per Table 8.
The mark [5] stands for this setting: One month after drug withdrawal.
[6] abbreviates: Three courses of treatment, oral twice a day, graded per Table 8.
Where [7] appears, read: Twelve months after drug withdrawal.
Setting [8] is: three months after drug withdrawal.

Read-outs that look alike come from different tables or passages of the source. Marks after values point to notes of the source that are not given here.

Protocol for male mice: Sperm abnormality assay in mice 50 sexually mature male mice weighing 30-35 g is randomly divided into 5 groups. […] The doses of the pharmaceutical product for treating ankylosing spondylitis for combined immunodeficiency according to the present invention is 1.25, 2.50, and 5.00 g/kg•bw, respectively, which were adjusted to the desired concentration with distilled water. The mice were administered via oral gavage once a day for 5 days, and the animals were sacrificed 30 days after the last gavage. The epididymis is sectioned and stained with eosin. Five animals were measured in each group and 1000 spermatozoa with intact structural were measured per animal, by which the incidence of sperm abnormality (in percentage) was calculated and statistical process is performed. […] Table 3 Statistical results of sperm abnormality assay in mice

In the case of `O=P1(N(CCCl)CCCl)NCCCO1` (stereo not shown) [cp, cyclophosphamide], the “Number of abnormal sperms” value with male mice (5000 sperms examined) was 487. Besides, in the data set with male mice (P<0.01 vs negative control), the “Rate of sperm abnormality (%)” value is given as 9.74* %. For the same molecule, in data set [1] (Female mice), the Number of micronucleus is 150 and the “Micronucleus rate (‰)” value is recorded as 30.0* ‰. Also, in data set [1] (Male mice), the Number of micronucleus was determined as 167 and the “Micronucleus rate (‰)” value was 33.4* ‰.

`CC(C(=O)O)c1ccc(CC2CCCC2=O)cc1` (stereo not shown) [loxoprofen sodium]: in data set [2] (setting [3]), the Cure is on record as 0 case, the Effective was determined as 36 case, the Improved is recorded as 3 case and the Ineffective is reported as 61 case. Also, in data set [2] (setting [4]), the Cure came to 0 case, the Ineffective was found to be 82 case, the excellence is given as 0 case and the upturn is 18 case. Further, in data set [2] (setting [5]), the Cure is 0 case, the Effective was determined as 31 case, the Improved is recorded as 2 case and the Ineffective is on record as 67 case. Further, in data set [2] (setting [6]), the Cure worked out at 0 case, the Ineffective was 61 case, the excellence is 3 case and the upturn is reported as 36 case. In data set [2] (setting [7]), the Cure amounted to 0 case, the Effective worked out at 9 case, the Improved worked out at 0 case and the Ineffective is reported as 91 case. In data set [2] (after three courses of treatment and then withdrawal), the “course of the therapeutic effect after withdrawal (in words)” value is “had more disease relapse”. In data set [2] (setting [8]), this molecule returned a Cure of 0 case, an Effective of 20 case, an Improved of 0 case and an Ineffective of 80 case.
